This is an account of results in patent publication US20250034182A1, “PHOSPHOLIPID COMPOUNDS AND METHODS OF MAKING AND USING THE SAME” (priority 2021, published 2025).

Some results are limits rather than exact numbers.

Type in all cases: cell-based
The test system of series [1] is Human Rhinovirus 1B (HRV1B) in H1-HeLa cells. Briefly: H1-HeLa HRV-CTG EC50, HRV1B (Example Z). As to conditions: Rhinovirus A, 96 h, MOI 0.5, 4 days, Celltiter-Glo, read-out: HRV 1B HELA EC50 (nM) (per Ex. Z). In outline:
(§1)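 H1-HeLa cells (5,000/well) in DMEM with 2% FBS were infected with HRV1B, HRV14 or HRV16 at MOI 0.5, 1.0 and 0.25, respectively, with 10-point 1:3 compound dilutions. After 4 days at 37 °C, viability was read by CellTiter-Glo luminescence. EC50 was the concentration reducing viral replication by 50%, normalized to rupintrivir and DMSO controls.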

A short description of series [2]: RSV HEP2-CC50-384-V2 (per Ex. V). As to conditions: human.
Series [3] in a line: RSV NHBE CC50 384 V2 (per Ex. U). The note with it: human.
Series [4] relates to Human Rhinovirus 16 (HRV16) in H1-HeLa cells. Nature of the series: H1-HeLa HRV-CTG EC50, HRV16 (Example Z). The note with it: Rhinovirus A, HRV16, 96 h, MOI 0.25, 4 days, Celltiter-Glo, read-out: HRV 16 HELA EC50 (nM) (per Ex. Z). The method, boiled down:
as §1

For series [5], the system named is Human Rhinovirus 14 (HRV14) in H1-HeLa cells. Briefly: H1-HeLa HRV-CTG EC50, HRV14 (Example Z). As to conditions: Rhinovirus B, HRV14, 96 h, MOI 1.0, 4 days, Celltiter-Glo, read-out: HRV14 HELA EC50 (nM) (per Ex. Z). The method, boiled down:
as §1

Series [6] concerns Recombinant Respiratory Syncytial virus strain A2 containing the firefly luciferase reporter (RSV-Fluc) in NHBE cells. Briefly: RSV NHBE FLuc EC50 (Example I). The note with it: human respiratory syncytial virus, 72 h, read-out: RSV NHBE FLuc EC50 (nM) (per Ex. I). In outline:
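NHBE primary cells (passage 2-4) treated with threefold compound dilutions and infected with RSV A2 firefly-luciferase reporter virus at MOI 0.1; 3 days at 37° C, 5% CO2. ONE-Glo luminescence normalized to uninfected and infected DMSO controls; EC50 from non-linear regression, duplicates with two technical repeats.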

For the compound `CCCCCCCCCCCCCCCCCCC[C@H](COP(=O)(O)OC[C@@]1(C#N)O[C@@H](c2ccc3c(N)ncnn23)[C@H](O)[C@@H]1O)OCc1ccc(C#N)c(OC(C)C)c1` [Compound 28, ((2R,3S,4R,5S)-5-(4-aminopyrrolo[2,1-f][1,2,4]triazin-7-yl)-2-cyano-3,4-dihydroxytetrahydrofuran-2-yl)methyl ((R)-2-((4-cyano-3-isopropoxybenzyl)oxy)henicosyl) hydrogen phosphate], the EC50 in series [1] turned out to be 36 nM; in series [4] it was 51 nM; in series [5], 47 nM; in series [6], 28 nM. Further, the CC50 at 3 days stood at 30600 nM in series [2] and 7560 nM in series [3].
`CCCCCCCCCCCCCCCCC[C@H](COP(=O)(O)OC[C@@]1(C#N)O[C@@H](c2ccc3c(N)ncnn23)[C@H](O)[C@@H]1O)OCc1cc(F)cc(C#N)c1` [Compound 36, ((2R,3S,4R,5S)-5-(4-aminopyrrolo[2,1-f][1,2,4]triazin-7-yl)-2-cyano-3,4-dihydroxytetrahydrofuran-2-yl)methyl ((R)-2-((3-cyano-5-fluorobenzyl)oxy)nonadecyl) hydrogen phosphate]: the EC50 worked out at 102 nM in series [1], 112 nM in series [4], 113 nM in series [5] and 121 nM in series [6]. Also, the results for the CC50 at 3 days in series [2] and in series [3] were greater than 50000 nM and 2740 nM, respectively.
On to `CCCCCCCCCCCCCCCCCC[C@@H](COP(=O)(O)OC[C@@]1(C#N)O[C@@H](c2ccc3c(N)ncnn23)[C@H](O)[C@@H]1O)OCc1cc(F)cc(C#N)c1` [Compound 37, ((2R,3S,4R)-5-(4-aminopyrrolo[2,1-f][1,2,4]triazin-7-yl)-2-cyano-3,4-dihydroxytetrahydrofuran-2-yl)methyl ((S)-2-((3-cyano-5-fluorobenzyl)oxy)icosyl) hydrogen phosphate], for which the EC50 was determined as 332 nM in series [1], 249 nM in series [4], 183 nM in series [5] and 276 nM in series [6]. In addition, the figures for the CC50 at 3 days in series [2] and in series [3] were greater than 38100 nM and 3110 nM, respectively.
Regarding `CCCCCCCCCCCCCCCCCCC[C@H](COP(=O)(O)OC[C@@]1(C#N)O[C@@H](c2ccc3c(N)ncnn23)[C@H](O)[C@@H]1O)Oc1ccc(C#N)c(OC(C)C)c1` [Compound 38, ((2R,3S,4R,5S)-5-(4-aminopyrrolo[2,1-f][1,2,4]triazin-7-yl)-2-cyano-3,4-dihydroxytetrahydrofuran-2-yl)methyl ((R)-2-(4-cyano-3-isopropoxyphenoxy)henicosyl) hydrogen phosphate], the concentration for a half-maximal effect (EC50) in series [1] turned out to be 12 nM; in series [4], 29 nM; in series [5] it was 28 nM; in series [6], 23 nM. Besides, the CC50 at 3 days in series [2] came out at 35300 nM; in series [3], 7990 nM.
Regarding `CCCCCCCCCCCCCCCCCCOCC(COc1cc(F)cc(C#N)c1)COP(=O)(O)OC[C@@]1(C#N)O[C@@H](c2ccc3c(N)ncnn23)[C@H](O)[C@@H]1O` (stereo partly drawn) [Compound 43, ((2R,3S,4R,5S)-5-(4-aminopyrrolo[2,1-f][1,2,4]triazin-7-yl)-2-cyano-3,4-dihydroxytetrahydrofuran-2-yl)methyl (3-(3-cyano-5-fluorophenoxy)-2-((octadecyloxy)methyl)propyl) hydrogen phosphate], the EC50 in series [1] was found to be 36 nM; in series [4] it was 53 nM; in series [5] it was 75 nM; in series [6], 129 nM. The figures for the CC50 at 3 days in series [2] and in series [3] were greater than 30300 nM and 11900 nM, respectively.
As for `CCCCCCCCCCCCCCCCCCCC[C@H](COP(=O)(O)OC[C@@]1(C#N)O[C@@H](c2ccc3c(N)ncnn23)[C@H](O)[C@@H]1O)Oc1cccc(C#N)c1` [Compound 51, ((2R,3S,4R,5S)-5-(4-aminopyrrolo[2,1-f][1,2,4]triazin-7-yl)-2-cyano-3,4-dihydroxytetrahydrofuran-2-yl)methyl ((R)-2-(3-cyanophenoxy)docosyl) hydrogen phosphate], the EC50 was found to be 33 nM in series [1], 34 nM in series [4], 49 nM in series [5] and 66 nM in series [6]. In addition, the values for the CC50 at 3 days in series [2] and in series [3] were greater than 46200 nM and 8330 nM, respectively.
Consider `CCCCCCCCCCCCCCCCCOC[C@H](COP(=O)(O)OC[C@@]1(C#N)O[C@@H](c2ccc3c(N)ncnn23)[C@H](O)[C@@H]1O)OCc1cc(F)cc(C#N)c1` [Compound 53, ((2R,3S,4R,5S)-5-(4-aminopyrrolo[2,1-f][1,2,4]triazin-7-yl)-2-cyano-3,4-dihydroxytetrahydrofuran-2-yl)methyl ((R)-2-((3-cyano-5-fluorobenzyl)oxy)-3-(heptadecyloxy)propyl) hydrogen phosphate], for which the EC50 in series [1] is 34 nM; in series [4], 35 nM; in series [5], 35 nM; in series [6], 69 nM. Moreover, the cytotoxic concentration (CC50) at 3 days in series [2] came out at 32100 nM; in series [3], 2820 nM.
As for `CCCCCCCCCCCCCCCCCCOC[C@H](COP(=O)(O)OC[C@@]1(C#N)O[C@@H](c2ccc3c(N)ncnn23)[C@H](O)[C@@H]1O)OCc1cccc(C#N)n1` [Compound 68, ((2R,3S,4R)-5-(4-aminopyrrolo[2,1-f][1,2,4]triazin-7-yl)-2-cyano-3,4-dihydroxytetrahydrofuran-2-yl)methyl ((R)-2-((6-cyanopyridin-2-yl)methoxy)-3-(octadecyloxy)propyl) hydrogen phosphate], the EC50 in series [1] was 12 nM; in series [4] it was 20 nM; in series [5] it was 35 nM; in series [6] it was 36 nM. Besides, the CC50 at 3 days in series [2] stood at 42800 nM; in series [3], 2060 nM.
As for `CCCCCCCCCCCCCCOC[C@H](COP(=O)(O)OC[C@@]1(C#N)O[C@@H](c2ccc3c(N)ncnn23)[C@H](O)[C@@H]1O)Oc1cc(C#N)ccn1` [Compound 69, ((2R,3S,4R)-5-(4-aminopyrrolo[2,1-f][1,2,4]triazin-7-yl)-2-cyano-3,4-dihydroxytetrahydrofuran-2-yl)methyl ((R)-2-((4-cyanopyridin-2-yl)oxy)-3-(tetradecyloxy)propyl) hydrogen phosphate], the EC50 in series [1] came out at 116 nM; in series [4] it was 109 nM; in series [5] it was 106 nM; in series [6], 29 nM. In addition, the CC50 at 3 days in series [2] was greater than 50000 nM; in series [3], 3290 nM.
Regarding `CCCCCCCCCCCCCCCCCCOC[C@H](COP(=O)(O)OC[C@@]1(C#N)O[C@@H](c2ccc3c(N)ncnn23)[C@H](O)[C@@H]1O)OCc1ccc(C#N)cc1OC` [Compound 73, ((2R,3S,4R)-5-(4-aminopyrrolo[2,1-f][1,2,4]triazin-7-yl)-2-cyano-3,4-dihydroxytetrahydrofuran-2-yl)methyl ((R)-2-((4-cyano-2-methoxybenzyl)oxy)-3-(octadecyloxy)propyl) hydrogen phosphate], the EC50 turned out to be 12 nM in series [1], 29 nM in series [4], 26 nM in series [5] and 25 nM in series [6]. Further, the CC50 at 3 days in series [2] is greater than 47000 nM; in series [3], 3820 nM.
On to `CCCCCCCCCCCCCCOC[C@H](COP(=O)(O)OC[C@@]1(C#N)O[C@@H](c2ccc3c(N)ncnn23)[C@H](O)[C@@H]1O)OCc1ccc(C#N)cc1F` [Compound 75, ((2R,3S,4R,5S)-5-(4-aminopyrrolo[2,1-f][1,2,4]triazin-7-yl)-2-cyano-3,4-dihydroxytetrahydrofuran-2-yl)methyl ((R)-2-((4-cyano-2-fluorobenzyl)oxy)-3-(tetradecyloxy)propyl) hydrogen phosphate], for which the EC50 was 23 nM in series [1], 37 nM in series [4], 37 nM in series [5] and less than 10.9 nM in series [6]. Further, the values for the CC50 at 3 days in series [2] and in series [3] were greater than 48500 nM and 4620 nM, respectively.
